In patent US10526338B2, “Functionalized pentanoic acids for use influenza viral infections” (Janssen Sciences Ireland UC, priority 2016, dated 2020):
Like-named read-outs stand apart in the source and are kept apart here.

Tested on: influenza virus A/Taiwan/1/86 (H1N1)
Assay: organism not typed
Format: cell-based
Conditions: 72 h, MDCK cells infected by influenza A/Taiwan/1/86 (H1N1), three days post-virus exposure, ATP levels
[1] = read-out: FLU-AVE-MDCK-ATP-TW_EC50
[2] = read-out: FLU-AVE-MDCK-ATP-TW_pEC50 (converted)

CC(C)(c1ccccn1)[C@H](CC(=O)O)Nc1nc(-c2c[nH]c3ncc(Cl)cc23)c(C#N)cc1F (single isomer, unassigned)
EC50 [1]: 0.075 nM | EC50 [2]: 0.00631 nM

CC1(C(CC(=O)O)Nc2nc(-c3c[nH]c4ncc(Cl)cc34)ncc2F)COC1 (stereo not drawn)
EC50 [1]: 982 nM | EC50 [2]: 1000 nM

C=CCC(C)(C)C(CC(=O)O)Nc1nc(-c2c[nH]c3ncc(Cl)cc23)c(C#N)cc1F (stereo not drawn)
EC50 [1]: 1 nM | EC50 [2]: 1 nM

CC(C)(c1cccs1)C(CC(=O)O)Nc1nc(-c2c[nH]c3ncc(Cl)cc23)c(C#N)cc1F (stereo not drawn)
EC50 [1]: 0.57 nM | EC50 [2]: 0.631 nM

CC(C)(c1nccs1)C(CC(=O)O)Nc1nc(-c2c[nH]c3ncc(Cl)cc23)c(C#N)cc1F (stereo not drawn)
EC50 [1]: 0.267 nM | EC50 [2]: 0.251 nM

CC(C)(c1ccccn1)[C@@H](CC(=O)O)Nc1nc(-c2c[nH]c3ncc(Cl)cc23)c(C#N)cc1F (single isomer, unassigned)
EC50 [1]: 5.4 nM | EC50 [2]: 5.01 nM

CC(C)(c1cccs1)C(CC(=O)O)Nc1nc(-c2c[nH]c3ncc(Cl)cc23)ncc1F (stereo not drawn)
EC50 [1]: 2.54 nM | EC50 [2]: 2.51 nM

Cn1ccc(C(C)(C)C(CC(=O)O)Nc2nc(-c3c[nH]c4ncc(Cl)cc34)c(C#N)cc2F)n1 (stereo not drawn)
EC50 [1]: 2.56 nM | EC50 [2]: 2.51 nM

CC(C)(c1ccccn1)C(CC(=O)O)Nc1nc(-c2c[nH]c3ncc(Cl)cc23)c(C#N)cc1F (stereo not drawn)
EC50 [1]: 0.47 nM

CC(C)(c1ccccn1)C(CC(=O)O)Nc1nc(-c2c[nH]c3ncncc23)ncc1F (stereo not drawn)
EC50 [1]: 1890 nM
